Test [1] in a line: Inhibition of Influenza B virus (B/Perth/211/2001) recombinant wild type neuraminidase expressed in Sf21 insect cells after 60 mins by MUNANA based assay.
The nature of test [2]: Inhibition of Influenza B virus B/Gifu/11/2005 wild type neuraminidase expressed in Sf21 insect cells after 60 mins by MUNANA based assay.
Test [3] is described as follows: Inhibition of Influenza B virus (B/Perth/211/2001) wild type recombinant neuraminidase expressed in Sf21 insect cells preincubated for 30 mins measured after 60 mins by MUNANA based assay.
The nature of test [4]: Inhibition of Influenza B virus B/Gifu/11/2005 wild type neuraminidase expressed in Sf21 insect cells preincubated for 30 mins measured after 60 mins by MUNANA based assay.

As usually defined, the IC50 is the concentration at which inhibition is half-maximal. Consider `O=C(O)C1(F)O[C@H]([C@H](O)[C@H](O)CO)[C@H](O)[C@@H](O)C1F` (some centres not stated), for which the IC50 in test [1] came to 37700 nM.
As usually defined, the Ki is a dissociation constant, usually derived from enzyme kinetics or from competition with a known ligand. In the case of `CCC(CC)[C@H](NC(C)=O)[C@@H]1[C@H](O)[C@@H](C(=O)O)C[C@H]1NC(=N)N` [PERAMIVIR ANHYDROUS], the Ki in test [2] is 0.7 nM; in test [3], 0.6 nM; in test [1], 1.2 nM; in test [4], 0.3 nM. Moreover, the IC50 in test [3] stood at 2.8 nM; in test [4] it was 2.1 nM.
